Columns and labels:
Format in all cases: ADME
[1] = Clearance in human
[2] = Fraction unbound in human
[3] = Volume of distribution at steady state in human; details: read-out: Vdss
[4] = Unbound volume of distribution at steady state in human
[5] = Unbound clearance in human
[6] = Half life in human
[7] = Unbound AUC in human administered as single dose
[8] = AUC in human administered as single dose
[9] = Unbound AUC at steady state in human administered as single dose
[10] = AUC at steady state in human administered as single dose

| Structure (SMILES) | clearance [1] [mL/min/kg] | fraction unbound [2] | Vd [3] [L/kg] | fVdss [4] [L/kg] | CL free [5] [mL/min/kg] | half-life [6] [h] | fAUC [7] [ng·h/mL] | AUC [8] [ng·h/mL] | fAUC [9] [ng·h/mL] | AUC [10] [ng·h/mL] |
| --- | --- | --- | --- | --- | --- | --- | --- | --- | --- | --- |
| OC(Cn1cncn1)(Cn1cncn1)c1ccc(F)cc1F [FLUCONAZOLE] | 0.9 | 0.9 | 0.9 | 1 | 1 | 32 | 90000 | 100000 |  |  |
| CCC(C)n1ncn(-c2ccc(N3CCN(c4ccc(OCC5COC(Cn6cncn6)(c6ccc(Cl)cc6Cl)O5)cc4)CC3)cc2)c1=O (stereo unspecified) [ITRACONAZOLE] | 5.4 | ≤ 0.002 | 11 | > 5000 | > 2700 | 23 |  |  | 50 | 23000 |

Reference: ChEMBL document CHEMBL4665694, “Integrating the Impact of Lipophilicity on Potency and Pharmacokinetic Parameters Enables the Use of Diverse Chemical Space during Small Molecule Drug Optimization” (J Med Chem, 2020)
